The text below walks through data of patent US11414416B1, “Compounds and uses thereof” (Foghorn Therapeutics Inc., priority 2019, dated 2022).

Read-outs that look alike come from different tables or passages of the source. A value given as a limit tells only on which side of the number the result lay.

In this test the target is Nanoluciferase-BRD9 fusion protein (Homo sapiens (Human), UniProt Q9H8M2). In words: SYO1 BRD9 NanoLuc degradation assay. It counts as cell-based. As to conditions: SYO-1 cells expressing 3×FLAG-NLuc-BRD9, 6 hours, read-out: SYO1 BRD9-NanoLuc degradation IC50. Summed up: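 Degradation was read as loss of nanoluciferase signal (Nano-Glo) after 6 h compound exposure in a stable SYO-1 line carrying 3×FLAG-NLuc-BRD9 (8000 cells/well). Normalised between DMSO (high) and a 1 μM known BRD9 degrader (low).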
Sequence of Nanoluciferase-BRD9 fusion protein (Q9H8M2 whole entry, the tested form may be a part): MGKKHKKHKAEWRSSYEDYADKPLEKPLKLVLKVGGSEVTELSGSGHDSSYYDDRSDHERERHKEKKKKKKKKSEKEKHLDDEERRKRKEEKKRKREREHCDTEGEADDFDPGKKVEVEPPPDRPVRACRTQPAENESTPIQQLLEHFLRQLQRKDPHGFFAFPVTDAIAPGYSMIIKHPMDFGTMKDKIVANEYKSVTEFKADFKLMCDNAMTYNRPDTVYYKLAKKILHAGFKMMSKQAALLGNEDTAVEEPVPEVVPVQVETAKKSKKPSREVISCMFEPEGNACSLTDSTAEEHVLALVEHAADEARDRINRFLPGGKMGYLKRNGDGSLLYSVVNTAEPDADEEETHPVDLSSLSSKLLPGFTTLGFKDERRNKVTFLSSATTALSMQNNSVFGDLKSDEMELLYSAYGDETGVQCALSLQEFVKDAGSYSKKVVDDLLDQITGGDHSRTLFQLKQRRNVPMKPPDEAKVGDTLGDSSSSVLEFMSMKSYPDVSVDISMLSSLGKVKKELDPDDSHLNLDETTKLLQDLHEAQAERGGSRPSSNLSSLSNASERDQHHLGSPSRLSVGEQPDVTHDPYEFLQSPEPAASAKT

On to `COc1cc(-c2cc(C#N)c(=O)n(C)c2)cc(OC)c1CN1CC(CN2CCC3(CC2)CN(c2ccc4c(c2)C(=O)N(C2CCC(=O)NC2=O)C4=O)C3)C1` (stereo not shown) [Compound D352], for which the DC50 (Table 5B) is more than 1000 nM.

For the compound `COc1cc(-c2cn(C)c(=O)c3cnccc23)cc(OC)c1CN1CCC2(CC1)CN(CCCCCOc1ccc3c(c1)C(=O)N(C1CCC(=O)NC1=O)C3=O)CCO2` (stereo not shown) [Compound D47, 5-[[5-(9-[[2,6-dimethoxy-4-(2-methyl-1-oxo-2,7-naphthyridin-4-yl)phenyl]methyl]-1-oxa-4,9-diazaspiro[5.5]undecan-4-yl)pentyl]oxy]-2-(2,6-dioxopiperidin-3-yl)isoindole-1,3-dione formic acid], the DC50 (Table 5A) is less than 10 nM.

As for `COc1cc(-c2cn(C)c(=O)c3cn(C)nc23)cc(OC)c1CN1CC(CN2CCC3(CC2)CN(c2ccc4c(c2)CN(C2CCC(=O)NC2=O)C4=O)C3)C1` (stereo not shown) [Compound D370], the DC50 (Table 5B) was less than 10 nM.

Turning to `COc1cc(-c2cn(C)c(=O)c3cnccc23)cc(OC)c1CN(C)CCCn1cc(COc2ccc3c(c2)C(=O)N(C2CCC(=O)NC2=O)C3=O)nn1` (stereo not shown) [Compound D282], the DC50 (Table 5B) was in the range of 100 to 1000 nM.

On to `COc1cc(-c2cn(C)c(=O)c3cnccc23)cc(OC)c1CN(C)C(=O)CCCCN1CCC2(CCN(c3ccc4c(c3)C(=O)N(C3CCC(=O)NC3=O)C4=O)C2)C1` (stereo not shown) [Compound D188], for which, for the setting “Table 5B”, the DC50 was less than 10 nM.

On to `COc1cc(-c2cc(C)c(=O)n(C)n2)cc(OC)c1CN1CCC2(CC1)CN(c1ccc3c(c1)CN(C1CCC(=O)NC1=O)C3=O)C2` (stereo not shown) [Compound D357], for which the DC50 (Table 5B) was less than 10 nM.

Consider `COc1cc(-c2cn(C)c(=O)c3cnccc23)cc(OC)c1CN(C)CCCCN1CC2(CC(Oc3ccc4c(c3)C(=O)N(C3CCC(=O)NC3=O)C4=O)C2)C1` (stereo not shown) [Compound D251], for which the DC50 (Table 5B) was less than 10 nM.

`COc1cc(-c2cn(C)c(=O)c3cnccc23)cc(OC)c1CN1CCC(CN2CCC3(CN(c4ccc5c(c4)CN(C4CCC(=O)NC4=O)C5=O)C3)C(F)(F)C2)CC1` (stereo not shown) [Compound D379]: the DC50 (Table 5C) was less than 10 nM.

As for `COc1cc(-c2cn(C)c(=O)c3cnccc23)cc(OC)c1CN1CC(S(=O)(=O)NCCOCCNc2cccc3c2C(=O)N(C2CCC(=O)NC2=O)C3=O)C1` (stereo not shown) [Compound D45, 1-[[2,6-dimethoxy-4-(2-methyl-1-oxo-2,7-naphthyridin-4-yl)phenyl]methyl]-N-[2-(2-[[2-(2,6-dioxopiperidin-3-yl)-1,3-dioxoisoindol-4-yl]amino]ethoxy)ethyl]azetidine-3-sulfonamide], the DC50 (Table 5A) is less than 10 nM.

As for `COc1cc(-c2cn(C)c(=O)c3cnccc23)cc(OC)c1CN1CCC(n2cc(COC3CN(c4ccc5c(c4)C(=O)N(C4CCC(=O)NC4=O)C5=O)C3)nn2)CC1` (stereo not shown) [Compound D291], the DC50 (Table 5B) was less than 10 nM.

With `COc1cc(-c2cn(C)c(=O)c(C)c2C)c(OC)cc1CN1CC(CN2CCC3(CC2)CN(c2ccc4c(c2)C(=O)N(C2CCC(=O)NC2=O)C4=O)C3)C1` (stereo not shown) [Compound D354], the DC50 (Table 5B) is less than 10 nM.

`COc1cc(-c2ccn3c(=O)n(C)ccc23)cc(OC)c1CN1CCC2(CC1)CN(c1ccc3c(c1)C(=O)N(C1CCC(=O)NC1=O)C3)C2` (stereo not shown) [Compound D435]: the DC50 (Table 5C) was more than 1000 nM.

Take `COc1cc(-c2cn(C)c(=O)c3cnccc23)cc(OC)c1CN1CC(CC(=O)N2CCC3(CCN(c4ccc5c(c4)C(=O)N(C4CCC(=O)NC4=O)C5=O)C3)C2)C1` (stereo not shown) [Compound D192]: the DC50 (Table 5B) was in the range of 100 to 1000 nM.

Regarding `COc1cc(-c2cc(C)c(=O)n(C)c2)cc(OC)c1CN1Cc2cc3c(cc2C1)C(=O)N(C1CCC(=O)NC1=O)C3=O` (stereo not shown) [DD9], where the note is “Table 5B”, the DC50 was less than 10 nM.

Regarding `COc1cc(-c2cn(C)c(=O)c3cnccc23)cc(OC)c1CN1CC(CC(=O)NC2CC3(C2)CN(c2ccc4c(c2)C(=O)N(C2CCC(=O)NC2=O)C4=O)C3)C1` (stereo not shown) [Compound D194], the DC50 (Table 5B) was less than 10 nM.

On to `COc1cc(-c2cn(C)c(=O)c3cnccc23)cc(OC)c1CN(C)CCCCN1CCC2C1CN2c1ccc2c(c1)C(=O)N(C1CCC(=O)NC1=O)C2=O` (stereo not shown) [Compound D227], for which the DC50 (Table 5B) was less than 10 nM.

`COc1cc(-c2cn(C)c(=O)c3cnccc23)cc(OC)c1CN1CC(CC(=O)NC2CC3(C2)CC(Oc2ccc4c(c2)C(=O)N(C2CCC(=O)NC2=O)C4=O)C3)C1` (stereo not shown) [Compound D182]: the DC50 (Table 5B) lay in the range of 10 to 100 nM.

With `COc1cc(-c2cc(C)c(=O)n(C)c2)cc(OC)c1CN1CCC(CCN2CCN(C3CCC(=O)NC3=O)C(=O)C2)CC1` (stereo not shown) [Compound D334], the DC50 (Table 5B) was more than 1000 nM.

Turning to `COc1cc(-c2cn(C)c(=O)c3cnccc23)cc(OC)c1CN1CCC(C(=O)N2CCC3(CC2)CC(Oc2ccc4c(c2)C(=O)N(C2CCC(=O)NC2=O)C4=O)C3)CC1` (stereo not shown) [Compound D221], where the note is “Table 5B”, the DC50 is less than 10 nM.

As for `COc1cc(-c2cc(C)c(=O)n(C)c2)cc(OC)c1CN1CC(C#Cc2ccc3c(c2)C(=O)N(C2CCC(=O)NC2=O)C3)C1` (stereo not shown) [Compound D438], the DC50 (Table 5C) is less than 10 nM.

Take `COc1cc(-c2cn(C)c(=O)c3ccnnc23)cc(OC)c1CN1CCC(CN2CCC3(CC2)CC(Oc2ccc4c(c2)CN(C2CCC(=O)NC2=O)C4=O)C3)CC1` (stereo not shown) [Compound D366]: for the setting “Table 5B”, the DC50 was less than 10 nM.

On to `C/C=C/Cn1cc(-c2cc(OC)c(CN3CCN(c4ccc5c(c4)C(=O)N(C4CCC(=O)NC4=O)C5)CC3)c(OC)c2)c2cc(C)[nH]c2c1=O` (stereo not shown) [Compound D468], for which, under “Table 5C”, the DC50 is more than 1000 nM.

For `COc1cc(-c2cn(C)c(=O)c3cnn(C)c23)cc(OC)c1CN1CCC2(CC1)CN(c1ccc3c(c1)CN(C1CCC(=O)NC1=O)C3=O)C2` (stereo not shown) [Compound D411], the DC50 (Table 5C) is less than 10 nM.

Take `COc1cc(-c2cn(C)c(=O)c3cnccc23)cc(OC)c1CN1CCC2(CC1)CN(C(=O)C#Cc1ccc3c(c1)C(=O)N(C1CCC(=O)NC1=O)C3=O)C2` (stereo not shown) [Compound D197]: the DC50 (Table 5B) was less than 10 nM.

Consider `COc1cc(-c2cn(C)c(=O)c3cnccc23)cc(OC)c1CN1CC(CC(=O)N2CC3(CCN(c4ccc5c(c4)C(=O)N(C4CCC(=O)NC4=O)C5=O)C3)C2)C1` (stereo not shown) [Compound D77], for which, for the setting “Table 5A”, the DC50 was 100 to 1000 nM.

On to `COc1cc(-c2cn(C)c(=O)c3cnccc23)cc(OC)c1CN1CC(CCNC(=O)CCOCCOc2cccc3c2C(=O)N(C2CCC(=O)NC2=O)C3=O)C1` (stereo not shown) [Compound D83], for which the DC50 (Table 5A) is 100 to 1000 nM.

As to `COc1cc(-c2cn(C)c(=O)c3cnccc23)cc(OC)c1CN1CC(OCc2cn(CCOc3ccc4c(c3)C(=O)N(C3CCC(=O)NC3=O)C4=O)nn2)C1` (stereo not shown) [Compound D61, 5-(2-(4-(((1-(2,6-dimethoxy-4-(2-methyl-1-oxo-1,2-dihydro-2,7-naphthyridin-4-yl)benzyl)azetidin-3-yl)oxy)methyl)-1H-1,2,3-triazol-1-yl)ethoxy)-2-(2,6-dioxopiperidin-3-yl)isoindoline-1,3-dione], the DC50 (Table 5A) fell in the range of 10 to 100 nM.

For the compound `COc1cc(-c2cn(C)c(=O)c3cnccc23)cc(OC)c1CN1CCC2(CC1)CCN(C(=O)C#Cc1ccc3c(c1)C(=O)N(C1CCC(=O)NC1=O)C3=O)C2` (stereo not shown) [Compound D240], the DC50 (Table 5B) is less than 10 nM.

For `COc1cc(-c2c(C)n(C)c(=O)c3[nH]c(C)cc23)cc(OC)c1CN1CCC2(CC1)CN(c1ccc3c(c1)C(=O)N(C1CCC(=O)NC1=O)C3)C2` (stereo not shown) [Compound D437], the DC50 (Table 5C) was more than 1000 nM.

Consider `COc1cc(-c2cn(C)c(=O)c3cnccc23)cc(OC)c1CN1CCC(n2cc([C@H](C)Oc3ccc4c(c3)C(=O)N(C3CCC(=O)NC3=O)C4=O)nn2)CC1` (stereo partly shown) [Compound D320], for which, for the setting “Table 5B”, the DC50 was less than 10 nM.

On to `COc1cc(-c2cn(C)c(=O)c3[nH]ncc23)cc(OC)c1CN1CCC2(CC1)CN(c1ccc3c(c1)C(=O)N(C1CCC(=O)NC1=O)C3)C2` (stereo not shown) [Compound D433], for which, for the setting “Table 5C”, the DC50 was less than 10 nM.

As for `COc1cc(-c2cn(C)c(=O)c3cnccc23)cc(OC)c1CN(C)CC(=O)NCCN1Cc2cc3c(cc2C1)C(=O)N(C1CCC(=O)NC1=O)C3=O` (stereo not shown) [DD6], the DC50 (Table 5B) was 10 to 100 nM.

`COc1cc(-c2cc(C)c(F)c3ccccc23)cc(OC)c1CN1CCC(CN2CCC3(CC2)CC(Oc2ccc4c(c2)C(=O)N(C2CCC(=O)NC2=O)C4=O)C3)CC1` (stereo not shown) [DD10]: where the note is “Table 5B”, the DC50 is 100 to 1000 nM.

Regarding `COc1cc(-c2cn(C)c(=O)c3cnccc23)cc(OC)c1CN1CCC(n2cc(COc3ccc4c(c3)C(=O)N(C3CCC(=O)NC3=O)C4=O)nn2)CC1` (stereo not shown) [Compound D289], the DC50 (Table 5B) is less than 10 nM.

As for `COc1cc(-c2cn(C)c(=O)c3cnccc23)cc(OC)c1CN(C)C(=O)CCCCN1CCC2(CC1)CC(Oc1ccc3c(c1)C(=O)N(C1CCC(=O)NC1=O)C3=O)C2` (stereo not shown) [Compound D208], the DC50 (Table 5B) was less than 10 nM.

As to `COc1cc(-c2cc(C)c(=O)n(C)c2)cc(OC)c1CN1CCC2(CC1)CN(c1ccc3c(c1)C(=O)N(C1CCC(=O)NC1=O)C3=O)C2` (stereo not shown) [Compound D331], for the setting “Table 5B”, the DC50 was less than 10 nM.

In the case of `COc1cc(-c2cn(C)c(=O)c3cnccc23)cc(OC)c1CN1CC(CC(=O)N[C@@H]2C[C@@]23CCN(c2ccc4c(c2)C(=O)N(C2CCC(=O)NC2=O)C4=O)C3)C1` (stereo partly shown) [Compound D232], the DC50 (Table 5B) is 10 to 100 nM.

Consider `C/C=C/Cn1cc(-c2cc(OC)c(CN3CCC4(CC3)CN(c3ccc5c(c3)C(=O)N(C3CCC(=O)NC3=O)C5)C4)c(OC)c2)c2cc(C)[nH]c2c1=O` (stereo not shown) [Compound D467], for which the DC50 (Table 5C) is more than 1000 nM.

Consider `C/C=C/Cn1cc(-c2ccc(CN3CCC4(CC3)CN(c3ccc5c(c3)C(=O)N(C3CCC(=O)NC3=O)C5)C4)c(Cl)c2)n2cncc2c1=O` (stereo not shown) [Compound D465], for which, where the note is “Table 5C”, the DC50 was less than 10 nM.

In the case of `COc1cc(-c2cn(C)c(=O)c3cn(C)nc23)cc(OC)c1CN1CCC(CN2CCC3(CC2)CN(c2ccc4c(c2)C(=O)N(C2CCC(=O)NC2=O)C4)C3)CC1` (stereo not shown) [Compound D405], the DC50 (Table 5C) is less than 10 nM.

Take `COc1cc(-c2cc(C)c(=O)n(C)c2)cc(OC)c1CN1CCC(CCN2CCN(c3ccc4c(c3)C(=O)N(C3CCC(=O)NC3=O)C4=O)CC2)CC1` (stereo not shown) [Compound D329]: the DC50 (Table 5B) is less than 10 nM.

`C=CCn1cc(-c2cc(OC)c(CN3CC(CN4CCC5(CC4)CN(c4ccc6c(c4)C(=O)N(C4CCC(=O)NC4=O)C6=O)C5)C3)c(OC)c2)cc(C)c1=O` (stereo not shown) [Compound D348]: the DC50 (Table 5B) is less than 10 nM.

On to `COc1cc(-c2cn(C)c(=O)c3cnccc23)cc(OC)c1Cn1cc(COCCOc2ccc3c(c2)C(=O)N(C2CCC(=O)NC2=O)C3=O)nn1` (stereo not shown) [Compound D303], for which the DC50 (Table 5B) was in the range of 10 to 100 nM.
